Experimental data taken from patent US20240002846A1, “COMPOSITIONS AND METHODS FOR THE DIAGNOSIS AND TREATMENT OF ITCH” (Duke University, priority 2020, published 2024).
Entries after “also recorded” stand apart in the source; their conditions may differ.

Tests used:
DRG neurons = experiment: Ex vivo Ca2+ imaging of GCaMP3-expressing DRG explants; assay type: cell-based, mouse
Procedure: A previously established method was followed for ex vivo Ca^2+ imaging of DRG explants (Kim et al. Neuron 2014, 81, 873-887). Intact DRGs (L4 or L5) were isolated from naïve male or female Pirt-GCaMP3 mice (2-3 months old) and equilibrated in artificial cerebrospinal fluid (ACSF) bubbled with 95% O2/5% CO2 at room temperature. After 15 min, explants were placed in a dish with 2 mL of pre-oxygenated ACSF and imaged using a Zeiss 780 upright confocal microscope (Carl Zeiss AG, Oberkochen, Germany) with 20× water immersion objective and Z-stack approach at the 488 nm wavelength. Explants were stimulated by miR-146a or miR-146a scramble. After 15 min recording, capsaicin was then applied to identify whether the miR-146a responding neurons were TRPV1 positive. […] Ca^2+ fluorescence intensity was determined using the ImageJ software (NIH, Bethesda, MD, USA). For each neuron, the pixel intensity (Ft) was assessed for each frame and the pixel intensity recorded from the first 20 frames was taken to determine the average baseline value (F0). Ca^2+ signal amplitudes are presented as ΔF/F0, which is the ratio of fluorescence difference (Ft−F0) to baseline (F0).

DRG sensory neurons = experiment: Ca2+ imaging in cultured DRG sensory neurons; assay type: cell-based, mouse; settings: inhibitor 10 μM
Procedure: Primary mouse sensory neurons were cultured following previous protocol (Chen et al. Pain 2014, 155, 2662-2672). DRGs from 2-3 weeks old male WT, Trpv1 KO, and Trpa1 KO mice were dissected and digested with 1 mg/mL collagenase (Worthington, CSL1) and 5 mg/mL dispase (Invitrogen, Waltham, MA) for 1 h, then triturated. The resulting cell suspension was filtered through a 70 μm cell strainer (BD Biosciences, Bedford, MA) to remove debris. Neurons were cultured in DH10 medium (1:1 DMEM:Hams-F12, Invitrogen, Waltham, MA) with 10% FBS (Sigma, St. Louis, MO), 100 U/mL penicillin and 100 μg/mL streptomycin (Gibco, Gaithersburg, MD) and 50 ng/mL nerve growth factor (NGF; USBiological) on coverslips coated with poly-D-lysine and laminin (Invitrogen, Waltham, MA), and incubated with 5% CO2 at 37° C. Ca^2+ imaging was performed next day after culture.
In vitro and ex vivo Ca^2+ imaging. Routine procedures were followed for Ca^2+ imaging in cultured DRG sensory neurons, epidermal keratinocytes, and HEK cells (Chen et al. J. Biol. Chem. 2016, 291, 10252-10262; Chen et al. Pain 2014, 155, 2662-2672). […] Ratios of emissions were acquired at 0.5 Hz. ΔR/R0 was determined as the fraction of the increase of a given ratio over baseline ratio divided by baseline ratio. […]

mice = experiment: Effect of inhibitor pretreatment on LPA-, LPC- or miR-146a-induced scratching behavior; assay type: in vivo, mouse; settings: for effect on LPC-induced itch, i.p. injection / effect on miR-146a-induced itch, i.p. injection: i.p.: SB366791 2 mg/kg, HC030031 30 mg/kg; for effect on LPC-induced itch, i.t. injection / effect on miR-146a-induced itch, i.t. injection: i.t. 30 μg
Procedure: Behavioral assessment. Mice were shaved at the dorsal neck 1 d before experiments. […] After injections, mice were immediately placed back to the chamber, and the scratching behavior was recorded by a Panasonic video camera for 30 min. Hind limb scratching behavior directed toward the injected area at the nape of neck was observed. One scratch is defined as a lifting of the hind limb toward the injection site and then a replacing of the limb back to the floor, regardless of how many scratching strokes take place between those two movements. Behavioral analysis was conducted by observers blinded to genotype.
Control animals received the same volume of vehicles.
Lumbar puncture was made with a 30G-needle and drugs at 5 μL of volume were delivered. Scratching behavior assay was started approximately 2 weeks after resiniferatoxin treatment.

[1] = tested on: vesicular release from mKC; experiment: Vesicular release from cultured mouse keratinocytes (AChE activity); assay type: cell-based; settings: vs Scramble+LPC
Procedure: Vesicular release from cultured keratinocytes was quantified by detecting acetylcholinesterase (AChE) activity in the extracellular release fluid. (Gupta et al. Am. J. Physiol. Heart Circ. Physiol. 2007, 292, H3052-3056; Malik et al. Methods Mol. Biol. 2016, 1448, 237-248). CBQCA Protein Quantitation Kit (Molecular Probes, Eugene, OR) was used to assess the total protein amounts of each sample. Quantitation was carried out according to kit instructions (Fluorocet, Systems Biosciences, Palo Alto, CA). Briefly, vesicles were lysed to release esterase enzyme whose activity is measured using a florescence dye, excitation at 544 nm and emission at 590 nm. Fluostar Optima (BMG Labtech, Cary, NC) microplate reader was used to measure esterase activity. 500 ng protein equivalent of input was used per well. To determine the contribution of Rab5a and Rab27a to LPC-induced miR-146a release, cells were pre-treated with the Rab5a (5′-GUAGAAUCAA GUUUCUAAUUCUGAA-3′ SEQ ID NO: 9, 5′-[…]-3′ SEQ ID NO: 10) or Rab27a (5′-AGCUAAAA CUGAGAGCUUCAAACAG-3′ SEQ ID NO: 11, 5′-[…]-3′ SEQ ID NO: 12) siRNA (IDT, Coralville, IA) for 72 h before stimulation. Control cells were treated with scramble siRNA.

[2] = tested on: extracellular release of miR-146a; experiment: Extracellular release of miRs from cultured mouse keratinocytes (RT-qPCR); assay type: cell-based; settings: mKC; for effect of siRNA knockdown on LPC-elicited release of miR-146a: LPC 10 μM, 10 min, siRNA 72 h, vs Scramble+LPC; for decrease of extracellular-released miR-146a: siRNA knockdown, LPC stimulation
Procedure: Primary mouse keratinocytes were cultured following previous protocol (Chen et al. J. Biol. Chem. 2016, 291, 10252-10262). The epidermis from the back skin of newborn WT or keratinocyte-Trpv4 cKO mice was separated from the dermis by floating the skin on 0.25% trypsin (Gibco, Gaithersburg, MD) for 14-18 h at 4° C. Basal keratinocytes were separated from the cornified sheets by filtration through a […] cell strainer. Keratinocytes were plated on collagen I-coated dishes or glass coverslips and grown in EME media (Gibco, Gaithersburg, MD) containing 8% chelex (Bio-rad, Hercules, CA)-treated FBS with the final Ca^2+ adjusted to 0.05 mM, bovine pituitary extract (50 μg/mL), epidermal growth factor (5 ng/mL), and lx antibiotics/antimycotics (Gibco, Gaithersburg, MD) in a humidified incubator with 5% CO2 at 37° C. for 5-7 days until use. To knockdown Trpv4 in isolated keratinocytes from newborn keratinocyte-Trpv4 cKO mice, cells were treated with 4-OH tamoxifen at 500 nM for 72 h.
Measurement of released vesicles and extracellular miR-146a from cultured keratinocytes or sera Medium for the cultured keratinocytes was replaced with serum-free medium 2 h before LPC stimulation. […] Finally, cell-free supernatants were further purified using a Vesicular Isolation kit (Invitrogen, Waltham, MA) according to the manufacturer's instructions, with final product resuspended in ice-cold PBS. Total RNA extraction was then carried out using a Total RNA Isolation kit (Invitrogen, Waltham, MA). Enrichment for small RNAs was carried out by sequential increase in ethanol concentration and passing through glass-fiber filters. RNase free water was used to elute small RNAs in the final elution step. For human PBC sera or sera from ANIT-treated mice, RNA was isolated using Qiagen miRNeasy Plasma/Serum kit. cDNA synthesis from extracted RNAs was performed according to manufacturer's instructions (qSTAR miRNA kit, Origene). For qPCR, the stem-loop oligonucleotides specific for the following miRs are as follows: miR-146a-5p (GAGAACTGAATTCCATGGG, SEQ ID NO: 4), miR-let-7b (GAGGTAGTAGGTTGTGTGG, SEQ ID NO: 5), miR-125b-1 (CCCT GAGACCCTAACTTG, SEQ ID NO: 6), miR-203 (GTGGTTC TTGACAGTTCAAC, SEQ ID NO: 7), and miR-16-5p (AGCAGCAC GTAAATATTGGC, SEQ ID NO: 8). Primers were purchased from Integrated DNA Technologies company (Coralville, IA). qPCR reactions for each sample were run in triplicates, including no-template controls. MiR-16-5p was selected as a control due to the relative constancy of its expression in various cultured cell lines (Schwarzenbach et al. Clin. Chem. 2015, 61, 1333-1342). qPCR for this miR was performed in tandem with target miRs to determine the optimal normalization procedure. To investigate the effects of the specific TRPV4 inhibitors GSK205 or HC067047 and the specific MEK inhibitor U0126 on LPC-induced extracellular release of miR-146a, cells were incubated with the inhibitors for 15 min before stimulation. Control cells received the same volume of vehicle.
Vesicular release from cultured keratinocytes was quantified by detecting acetylcholinesterase (AChE) activity in the extracellular release fluid. (Gupta et al. Am. J. Physiol. Heart Circ. Physiol. 2007, 292, H3052-3056; Malik et al. Methods Mol. Biol. 2016, 1448, 237-248). CBQCA Protein Quantitation Kit (Molecular Probes, Eugene, OR) was used to assess the total protein amounts of each sample. Quantitation was carried out according to kit instructions (Fluorocet, Systems Biosciences, Palo Alto, CA). Briefly, vesicles were lysed to release esterase enzyme whose activity is measured using a florescence dye, excitation at 544 nm and emission at 590 nm. Fluostar Optima (BMG Labtech, Cary, NC) microplate reader was used to measure esterase activity. 500 ng protein equivalent of input was used per well. […]

Compound | effect on percentage of total DRG neurons responding to miR-146a (300 nM) (DRG neurons; inhibitor 10 μM) | effect on miR-146a (300 nM) induced Ca2+ influx (DRG sensory neurons) | effect on LPC-induced itch, i.p. injection (mice) | effect on miR-146a-induced itch, i.p. injection (mice) | effect on LPC-induced itch, i.t. injection (mice) | effect on miR-146a-induced itch, i.t. injection (mice) | Ca2+ signal in sensory neurons following stimulation (DRG neurons; miR-146a 300 nM, capsaicin 1 μM) | effect of siRNA on LPC-elicited vesicular release [1] | effect of siRNA knockdown on LPC-elicited release of miR-146a [2] | decrease of extracellular-released miR-146a [2] [%]
COc1cccc(NC(=O)/C=C/c2ccc(Cl)cc2)c1 [SB366791] | significantly reduced | significantly reduced | significantly reduced; also recorded: significantly attenuated | significantly reduced; also recorded: significantly attenuated | significantly reduced; also recorded: significantly attenuated | significantly reduced; also recorded: significantly attenuated |  |  |  | 
CC(C)c1ccc(NC(=O)Cn2cnc3c2c(=O)n(C)c(=O)n3C)cc1 [HC030031] |  | not significantly altered | not significantly altered | not significantly altered | not significantly altered | not significantly altered |  |  |  | 
COc1cc(CNC(=O)CCCC/C=C/C(C)C)ccc1O [capsaicin] |  |  |  |  |  |  | increased |  |  | 
Rab5a siRNA: siRNA against Rab5a, SEQ ID NO: 9 and 10 (chain 1 GUAGAAUCAAGUUUCUAAUUCUGAA; chain 2 UUCAGAAUUAGAAACUUGAUUCUACCA; listed as RNA, chemistry not given here) |  |  |  |  |  |  |  | completely eliminated; also recorded: significant decrease | significant decrease | ~40
Rab27a siRNA: siRNA against Rab27a, SEQ ID NO: 11 and 12 (chain 1 AGCUAAAACUGAGAGCUUCAAACAG; chain 2 CUGUUUGAAGCUCUCAGUUUUAGCUUA; listed as RNA, chemistry not given here) |  |  |  |  |  |  |  | completely eliminated; also recorded: significant decrease | significant decrease | ~40
